# Measured values published in patent publication US20180258459A1, “NITRATE BIOSENSOR” (priority 2015, published 2018).
# Test system: NarL associated promoter
# Assay: transfer of natural NarL with its associated promoter into B. subtilis
# Format: cell-based
# Settings: natural NarL protein with its associated promoter, previous attempts
substance,measurement,value
NarL: response regulator (RR) protein NarL from E. coli (UniProt P0AF28),functional transcription in B. subtilis,failed to result in functional transcription
